In patent publication US20110092517A1, “Use of PPAR Delta Ligands for the Treatment or Prevention of Inflammation or Energy Metabolism/Production Related Diseases” (Cerenis Therapeutics S.A. & Nippon Chemiphar Co., Ltd., priority 2009, published 2011):
“Also recorded” adds a separate entry of the source. Read-outs that look alike come from different tables or passages of the source.

How the values were obtained:
[1] = Euglycemic-hyperinsulinemic 2 steps clamp with 3H-glucose after 5 weeks of treatment in WD fed rats; assay type: in vivo, rat; settings: clamp 0.8 U/kg/h insulin; metformin 50, GW501516 10, compound I.1 10 mg/kg (alone or +metformin 50 mg/kg)
Method: After 4 weeks of treatment, a catheter was implanted into the femoral vein under isoflurane anaesthesia and a period of 5-6 days was respected for recovery. […] The morning of the clamp procedure, rats were treated and fasted for 6 hours prior to tracer, glucose and insulin infusions. The beginning of the clamp procedure was performed in the middle of the dark cycle.
The euglycemic hyperinsulinemic 2 steps insulin clamp was performed using 0.2 U/kg/h and 0.8 U/kg/h insulin infusion associated with 3H-glucose infusion. We then assessed:
During the clamp procedure, a bolus (30 μCi) of D-[3-3H]glucose was first injected followed by 4 μCi/min/kg infusion rate during all the experiment to ensure a detectable plasma D[3-3H]glucose enrichment. A bolus of insulin (100 mU) was first injected, and insulin was then infused at a rate of 0.2 U/kg/h for the first 2 hours and 0.8 U/kg/h from 120 minutes to 210 minutes.
Throughout the infusion, glycaemia was assessed with a blood glucose meter from the tip of the tail vein when needed. Euglycemia was maintained by periodically (every 10 minutes) adjusting a variable infusion of 30% glucose. Plasma glucose concentrations and D-[3-3H]glucose specific activity were determined during stable phase in 10 μl of blood sampled from the tip of the tail vein every 20 minutes from 60 to 120 minutes during the first step and from 150 to 210 minutes during the second step.
For glucose turnover measurements, D-[3-3H]glucose enrichments were determined from total blood after deproteinization by a Zn(OH)2 precipitate. Briefly, an aliquot of the supernatant was evaporated to dryness to determine the radioactivity corresponding to D-3-3H. In a second aliquot of the same supernatant, glucose concentration was assessed by the glucose oxidase method (Biomérieux, France).
Calculations for glucose turnover measurements were made from parameters obtained during the infusions in steady-state condition ([…]). Briefly, the D-[3-3H]glucose specific activity was calculated by dividing the D-[3-3H]glucose enrichment by the plasma glucose concentration. The whole body glucose turnover rate was calculated by dividing the rate of D[3-3H]glucose by the D-[3-3H]glucose plasma specific activity. For each rat, the mean values were calculated and averaged with values from rats of the same group. The whole body glycolysis rate was measured by assessing the amount of tritiated water accumulated in the blood during the 3H-glucose infusion and the whole body glycogen synthesis rate was calculated by the difference between the whole body glucose turnover and the whole body glycolysis rate.

[2] = system: TNF-alpha-activated HUVECs; settings: under physiological flow; cited from earlier work
[3] = Body weight follow-up during treatment in rats fed a high fat/medium fructose diet (WD); assay type: in vivo, rat; settings: oral once daily, pioglitazone 10, metformin 50, GW501516 10, compound I.1 10 mg/kg (alone or +metformin 50 mg/kg)
Excerpt: The first set of rats was undergoing an OGTT after 3 weeks of treatment (half rats/group of the clamp arm) and the second set was also undergoing an OGTT after 3 weeks of treatment (half rats/group of clamp arm) and the Histology study (3 rats/group). […] Homogenous mild obese and insulin resistant rats were allocated into the different treatment groups and western diet was continued until the end of the experiment. Given that, the 2 series started with a gap of one week Dosage regimen: Rats were treated once daily via the oral route, in the morning. The duration of the treatment was between 5 and 5.5 weeks. […], 10 mg/Kg (n=12) […] The second set of rats was weighted at 8:30 on days 17 and 21, at 1:45 pm on day 24 and at 11:10 am on day 28.

rat PPARδ = molecular target: T1, rat PPARδ (Rattus norvegicus, UniProt Q62879); experiment: GAL4-PPAR chimera transactivation assay in CV-1 cells at 10% or 0.1% serum (Example 4); assay type: cell-based; settings: read-out: GAL4-chimera (rat) EC50 (μM) hPPARδ
T1 construct: expressed in transfected cells; host or cells: CV-1
T1 sequence (Q62879 139-440 limits assumed): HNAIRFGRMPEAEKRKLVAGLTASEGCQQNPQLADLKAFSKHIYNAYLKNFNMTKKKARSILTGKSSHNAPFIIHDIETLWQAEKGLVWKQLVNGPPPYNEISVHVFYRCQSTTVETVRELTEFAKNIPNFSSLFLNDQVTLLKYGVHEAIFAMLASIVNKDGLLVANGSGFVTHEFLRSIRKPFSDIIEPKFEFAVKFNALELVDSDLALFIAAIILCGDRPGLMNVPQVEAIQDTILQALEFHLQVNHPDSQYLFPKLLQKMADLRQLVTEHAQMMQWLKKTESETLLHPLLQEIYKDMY
Method: Assays were performed in triplicate for GAL4-chimeras. Experiments were repeated at least three times.
The EC50 were calculated as previously described.
The transactivation activities of the compound I.1 and GW501516 are measured in rat and mouse transactivation assays at 10% and 0.1% serum (Tables 11 and 12).

TNF-α = TNF-α content in liver and epididymal white adipose tissue after 5 weeks of treatment in WD fed rats (ELISA); assay type: in vivo, rat
Method: (§1) At the end of the clamp procedure (9.5 hours fasting), perirenal, retroperitoneal, epididymal and inguinal fat pads and liver weights were recorded. Blood was collected from cardiac puncture and plasmas were stored at −80° C. for further assays if needed (depending on the radioactive state of samples). Liver triglyceride content was assessed (enzymatic-colorimetric method) as well as liver and adipose tissue TNF-α content (ELISA method).

[4] = Plasma biochemistry after 17 days of treatment in WD fed rats (glycemia, insulin, HOMA-IR, adiponectin, FFA, TG); assay type: in vivo, rat
rat PPARα = molecular target: T2, rat PPARα (Rattus norvegicus, UniProt P37230); experiment: GAL4-PPAR chimera transactivation assay in CV-1 cells at 10% or 0.1% serum (Example 4); assay type: cell-based; settings: read-out: GAL4-chimera (rat) EC50 (μM) hPPARα
T2 construct: expressed in transfected cells; host or cells: CV-1
T2 sequence (P37230 239-466 limits assumed): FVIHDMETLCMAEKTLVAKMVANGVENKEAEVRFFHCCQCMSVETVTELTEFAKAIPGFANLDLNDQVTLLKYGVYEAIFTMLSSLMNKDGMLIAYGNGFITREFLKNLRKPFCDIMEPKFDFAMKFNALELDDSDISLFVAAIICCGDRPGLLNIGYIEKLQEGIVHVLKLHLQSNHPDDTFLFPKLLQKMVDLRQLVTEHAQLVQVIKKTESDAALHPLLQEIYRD

[5] = Oral glucose tolerance test after 3 weeks of treatment in WD fed rats; assay type: in vivo, rat; settings: 6 h fasted, oral glucose 2.5 g/kg after 3 weeks, pioglitazone 10, metformin 50, GW501516 10, compound I.1 10 mg/kg
[6] = Liver and adipose tissue weights after 5 weeks of treatment in WD fed rats; assay type: in vivo, rat; settings: non significant, pioglitazone 10, GW501516 10 mg/kg
Method: as §1

[7] = Triglycerides content in the liver after 5 weeks of treatment in WD fed rats (enzymatic-colorimetric method); assay type: in vivo, rat; settings: pioglitazone 10, GW501516 10, compound I.1 at any used dose
Method: as §1

## Cc1cc(SCc2sc(-c3ccc(C(F)(F)F)cc3)nc2C)ccc1OCC(=O)O [GW-501516]
[1]
  Increase of glycolysis: 21%
[2]
  Rolling and adhesion of hPMNs on TNF-alpha-activated HUVECs: inhibited markedly
[3]
  Body weight / body weight gain during treatment: slightly decreased body weight the first week of treatment but not in a significant manner; also recorded: significant after 4 weeks of treatment
Rat PPARδ; 0.1% serum
  EC50: 0.072 ± 0.025 µM
Rat PPARδ; 10% serum
  EC50: 0.427 ± 0.29 µM
TNF-α; compound I.1 10 mg/kg +metformin 50 mg/kg, GW501516 10 mg/kg, other groups
  TNF-α content in the liver: tended to decreased
TNF-α; metformin 50, GW501516 10, compound I.1 10 mg/kg (alone or +metformin 50 mg/kg)
  Decrease of TNF-α levels in epididymal white adipose tissues: 60%
TNF-α; tendency, compound I.1 10 mg/kg +metformin 50 mg/kg, GW501516 10 mg/kg
  Decrease of TNF-α level in the liver: 12%
[4]; 4 h fasted, pioglitazone 10, metformin 50, GW501516 10, compound I.1 10 mg/kg
  Decrease of HOMA-IR: ~25%
[4]; 4 h fasted, pioglitazone 10, metformin 50, GW501516 10, compound I.1 10 mg/kg +metformin 50 mg/kg
  Decrease of plasma insulin: 21%
[4]; GW501516 10 mg/kg, compound I.1 10 mg/kg +metformin 50 mg/kg
  Increase of plasma TG: 84%
[4]; pioglitazone 10, metformin 50, GW501516 10, compound I.1 3 and 10 mg/kg
  Plasma adiponectin levels: prevented the decrease
Rat PPARα; 0.1% serum
  EC50: 1.96 ± 0.7 µM
Rat PPARα; 10% serum
  EC50: > 10 µM
[5]
  Glucose tolerance (OGTT, AUC, glycemia variation): strong tendency to improved glucose tolerance
[6]
  Decrease of liver weight: 8%
[7]
  Triglycerides content in the liver: tended to decrease; also recorded: did not significantly decrease
